The subject of one assay is Achlya bisexualis. The assay is described as follows: Paper disk in-vitro bioactivity assay on PDA plates. It counts as cell-based. As to conditions: PDA plate.
Another assay concerns Saprolegnia parasitica. The assay can be described thus: 8-Nonenoic acid vs. Saprolegnia parasitica in Tilapia eggs bioassay test. It counts as in vivo, Tilapia (Oreochromis mossambicus) eggs. As to conditions: S. parasitica plugs and 10 μg/ml, one week, 26° C. The protocol: Tilapia (Oreochromis mossambicus) eggs, 3 days post fertilization, were collected from the hatchery at the department of fisheries in ARO the Volcani Center and brought to the lab. Eggs were rinsed with aquarium water. Eggs were introduced to 100 ml flasks (25 ml water in each flask), 6 eggs for each flask. Eggs were introduced with Saprolegnia parasitica plugs in the flask or with Saprolegnia parasitica plugs and 10 μg/ml 8-Nonenoic acid. Control eggs were not treated and/or supplemented. Flasks were incubated on a shaker under controlled conditions: 26° C., 95 rpm, and day light for a week.

A further assay relates to S. parasitica mycelia. The assay is described as follows: Compound bioassays of 8-Nonenoic acid in liquid and solid media. It counts as cell-based, Saprolegnia parasitica. The following applies: for Concentration giving full inhibition of S. parasitica growth: 19° C., 3 days. As to the method: The inhibition activity of the compound 8-Nonenoic acid was examined in both liquid and solid media. For liquid assay, a plug of PDA harboring the S. parasitica mycelia was introduced to 1 ml of sterile double distilled water (DDW) with 10 μl of potato dextrose broth (PDB) and varying concentrations of 8-Nonenoic acid (0, 0.1, 0.5, 1, 2.5, 5, 7.5, 10, 20 μg/ml) in 48 well plate and incubated at 19° C. for 3 days. For solid assay, a plug of PDA harboring the S. parasitica mycelia was introduced to 50 mm PDA petri plates with varying concentrations of 8-Nonenoic acid (as described above) and incubated at 19° C. for 3 days. For both liquid and solid, mycelium growth radios was measured and S. parasitica plugs viability were evaluated by transferring them to fresh PDB/PDA and observing the growth developed within 3 days. All experiments were performed in triplicates.

A further assay deals with Pythium aphanidermatum. The assay is described as follows: Paper disk in-vitro bioactivity assay on PDA plates. It counts as cell-based. The following applies: PDA plate.
The next assay concerns Aeromonas salmonicida. In kind it is cell-based. As to conditions: 200 μg.
For a further assay, the system named is Phytophthora infestans. In kind it is cell-based. As to conditions: 200 μg on a paper disk, PDA plate.
Another assay deals with Photobacterium damselae. In kind it is cell-based. The following applies: 200 μg.
A further assay has as its system Streptococcus iniae. It counts as cell-based. As to conditions: 200 μg.

With `C=CCCCCCCC(=O)O` [8-Nonenoic acid], the “Inhibition of the oomycote mycelium” value in the assay with Achlya bisexualis (100 μg on a paper disk) and in the assay on Pythium aphanidermatum (100 μg on a paper disk) was “showed inhibition” each time. The “Survival of Tilapia eggs” value with Saprolegnia parasitica is recorded as “did survive”. Further, the “Inhibition of S. parasitica growth” value in the assay on S. parasitica mycelia (0.1 g/ml in both water and agar) is recorded as “No inhibition”; in the assay with S. parasitica mycelia (0.5-2.5 μg/ml, agar phase), “no inhibition”. For the same compound, in the assay on S. parasitica mycelia (in agar), the “Concentration at which the growth radius decreased” value is at least 5 µg/mL. The “Concentration giving full inhibition of S. parasitica growth” value with S. parasitica mycelia (in agar (solid assay)) amounted to 20 µg/mL; with S. parasitica mycelia (in water (liquid assay)), 2.5 µg/mL. For the same compound, the “Ability to inhibit S. parasitica growth (screen of compounds identified from ABp5)” value in the assay with S. parasitica mycelia (purchased GC/MS-identified compounds, FIG. 13A) is listed as “strong ability to inhibit”. Also, the “Viability of fully inhibited S. parasitica plugs” value with S. parasitica mycelia (transferred to a new plate) is recorded as “complete loss of viability”.
`CC(C)(c1ccccc1)c1ccc(O)cc1` [4-Cumylphenol]: the “Inhibition of the oomycete mycelium” value in the assay with Achlya bisexualis (200 μg on a paper disk), with Phytophthora infestans and with Pythium aphanidermatum (200 μg on a paper disk) was “showed inhibition” throughout. In addition, the Inhibitory activity result with Aeromonas salmonicida, in the assay with Photobacterium damselae and in the assay with Streptococcus iniae was “showed inhibitory activity” each time.

(Values after patent US20230413857A1, “COMPOSITIONS OF MICROORGANISMS AND METHODS OF USING SAME” (The State of Israel, Ministry of Agriculture & Rural …, priority 2020, published 2023).)
